This note sets out measurements from patent US20140142053A1, “Use of a Composition Comprising Acylated Steryl Glucoside in the Manufacture of a Product” (UNIVERSITI PUTRA MALAYSIA, priority 2011, published 2014).

Experiment [1] has as its system low-density lipoprotein (LDL). Description: percentage change in low-density lipoprotein in diabetic rats (FIG. 5). The conditions noted are these: compared to white rice-fed and tween-treated rats. The experiment is classed as in vivo, rat.
For experiment [2], the system named is high-density lipoprotein (HDL). Description: percentage change in high-density lipoprotein in diabetic rats (FIG. 7). The note with it: A200: ASG in 200 mg/kg body weight, compared to white-rice fed and metformin-treated rats. Type of experiment: in vivo, rat.

Regarding `CN(C)C(=N)N=C(N)N` [metformin, reference compound], the “LDL level (percentage change in low-density lipoprotein)” value in experiment [1] (fed/treated groups) is given as “reduced”.

For the compound acylated steryl glucoside [ASG], the “HDL level (percentage change in high-density lipoprotein)” value in experiment [2] is given as “increased”. The “LDL level (percentage change in low-density lipoprotein)” value in experiment [1] (A100: ASG in 100 mg/kg body weight) and in experiment [1] (A200: ASG in 200 mg/kg body weight) was “reduced” throughout.
